# Results reported in patent publication US6706663B2, “Herbicidal 3-heterocyclic substituted benzisothiazole and benzisoxazole compounds” (Wyeth, priority 2000, dated 2004).
# Columns and labels:
# [1] = tested on: ECHCG (Echinochloa crus-galli); assay: Preemergence herbicidal evaluation; assay type: in vivo, (L.) Beau; conditions: preemergence, rated 4-5 weeks after treatment
# Outline: (§1)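 Visual 0-9 rating versus untreated control, taken four to five weeks post-treatment, scoring stand, vigor, malformation, size, chlorosis and overall appearance. Compound applied as aqueous acetone spray to freshly seeded soil cups, then kept under standard greenhouse care.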
# [2] = tested on: SETVI (Setaria viridis); assay: Preemergence herbicidal evaluation; assay type: in vivo, (L.) Beau; conditions: preemergence, rated 4-5 weeks after treatment
# Outline: as §1
# [3] = tested on: CYPSE (Cyperus serotinus); assay: Flooded paddy, preemergence weed control; assay type: in vivo, Rottb.; conditions: rate 0.1250 kg/ha, rated 3-4 weeks after treatment, 0-9 rating scale
# Method: Results of herbicide evaluation are expressed on a rating scale (0-9). The scale is based upon a visual observation of plant stand, vigor, malformation, size, chlorosis and overall plant appearance as compared with a control.
# Preemergence herbicidal activity under flooded paddy conditions is determined as follows: plant seeds or propagating organs are planted in the top 0.5 cm of silt loam soil in 32 oz. plastic containers with a diameter of 10.5 cm and no drainage holes. Water is added to these containers and maintained at 1.5 to 3 cm above the soil surface for the duration of the experiment. The test compounds are applied as aqueous/acetone mixtures 50/50 v/v pipetted directly into the flood water to give the equivalent of about 0.0080 to 0.1250 kg/ha of active ingredient. The treated containers are placed on greenhouse benches and cared for in accordance with conventional greenhouse procedures. Three to four weeks after treatment, the test is terminated and each container is examined and herbicidal effect rated according to the rating system provided in Example 87.
# [4] = tested on: TRZAWR (Wheat, Winter, cv Riband); assay: Postemergence herbicidal evaluation; assay type: in vivo, Triticum aestivum
# Outline: (§2)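 Visual 0–9 injury scores versus control plants, covering stand, vigour, malformation, size, chlorosis and general appearance, taken four to five weeks post-spray and averaged over replicate tests. Plants were sprayed at roughly two weeks old and held on greenhouse benches.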
# [5] = tested on: SAGPY (Sagittaria pygmaea); assay: Flooded paddy, preemergence weed control; assay type: in vivo, L.; conditions: rate 0.1250 kg/ha, rated 3-4 weeks after treatment, 0-9 rating scale
# Outline: (§3)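 Silt loam, sowing depth ≤0.5 cm; permanent flood 1.5–3 cm above soil; greenhouse culture after treatment. Readout: 0-9 visual scale (stand, vigor, malformation, size, chlorosis, appearance) vs control.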
# [6] = tested on: ZEAMX (Corn, Field); assay: Preemergence herbicidal evaluation; assay type: in vivo, Zea mays, L.; conditions: preemergence, rated 4-5 weeks after treatment
# [7] = tested on: ORYSAT (Rice, Tebonnet); assay: Preemergence herbicidal evaluation; assay type: in vivo, Oryza sativa, (L.) Tebonnet; conditions: preemergence, rated 4-5 weeks after treatment
# [8] = tested on: ORYSAT (Rice, Tebonnet); assay: Postemergence herbicidal evaluation; assay type: in vivo, Oryza sativa, (L.) Tebonnet
# Outline: as §2
# [9] = tested on: CHEAL (Chenopodium album); assay: Postemergence herbicidal evaluation; assay type: in vivo, L.
# Outline: as §2
# [10] = tested on: CASOB (Cassia obtusifolia); assay: Postemergence herbicidal evaluation; assay type: in vivo, L.
# Outline: as §2
# [11] = tested on: AMBEL (Ambrosia artemisifolia); assay: Postemergence herbicidal evaluation; assay type: in vivo, L.
# Outline: as §2
# [12] = tested on: IPOHE (Ipomoea hederacea); assay: Postemergence herbicidal evaluation; assay type: in vivo, (L.) Jacq.
# Outline: as §2
# [13] = tested on: IPOHE (Ipomoea hederacea); assay: Preemergence herbicidal evaluation; assay type: in vivo, (L.) Jacq.; conditions: preemergence, rated 4-5 weeks after treatment
# [14] = tested on: SETVI (Setaria viridis); assay: Postemergence herbicidal evaluation; assay type: in vivo, (L.) Beau
# Outline: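 Visual injury score (0-9: stand, vigor, malformation, size, chlorosis, overall appearance vs untreated control) taken four to five weeks post-spray. Two-week-old seedlings received about 0.0040 to 1.000 kg/ha active compound in acetone/water with 0.5% TWEEN 20.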
# [15] = tested on: ECHCG (Echinochloa crus-galli); assay: Postemergence herbicidal evaluation; assay type: in vivo, (L.) Beau
# Outline: as §2
# [16] = tested on: ABUTH (Abutilon theophrasti); assay: Postemergence herbicidal evaluation; assay type: in vivo, Medic.
# Outline: as §2
# [17] = tested on: CHEAL (Chenopodium album); assay: Preemergence herbicidal evaluation; assay type: in vivo, L.; conditions: preemergence, rated 4-5 weeks after treatment
# Outline: as §1
# [18] = tested on: CASOB (Cassia obtusifolia); assay: Preemergence herbicidal evaluation; assay type: in vivo, L.; conditions: preemergence, rated 4-5 weeks after treatment
# Outline: as §1
# [19] = tested on: AMBEL (Ambrosia artemisifolia); assay: Preemergence herbicidal evaluation; assay type: in vivo, L.; conditions: preemergence, rated 4-5 weeks after treatment
# Outline: as §1
# [20] = tested on: ECHORC (Echinochloa oryzoides); assay: Flooded paddy, preemergence weed control; assay type: in vivo, Echinochloa oryzoides (Ard.) Fritsch.; conditions: rate 0.1250 kg/ha, rated 3-4 weeks after treatment, 0-9 rating scale
# Outline: as §3
# [21] = tested on: GLXMAW (Soybean, Williams); assay: Postemergence herbicidal evaluation; assay type: in vivo, Glycine max, (L.) Merr. cv Williams
# Outline: as §2
# [22] = tested on: GALAP (Galium aparine); assay: Preemergence herbicidal evaluation; assay type: in vivo; conditions: preemergence, rated 4-5 weeks after treatment
# Outline: as §1
# [23] = tested on: MOOVA (Monochoria vaginalis); assay: Flooded paddy, preemergence weed control; assay type: in vivo, Presl.; conditions: rate 0.1250 kg/ha, rated 3-4 weeks after treatment, 0-9 rating scale
# Outline: as §3
# [24] = tested on: CYPIR (Cyperus iria); assay: Flooded paddy, preemergence weed control; assay type: in vivo; conditions: rate 0.1250 kg/ha, rated 3-4 weeks after treatment, 0-9 rating scale
# Outline: as §3
# [25] = tested on: ABUTH (Abutilon theophrasti); assay: Preemergence herbicidal evaluation; assay type: in vivo, Medic.; conditions: preemergence, rated 4-5 weeks after treatment
# [26] = tested on: ORYSAT (Rice, Tebonnet); assay: Flooded paddy, post-transplant rice tolerance; assay type: in vivo, Oryza sativa, (L.) Tebonnet; conditions: flooded paddy, post-transplant rice; rate 0.1250 kg/ha; rated 3-4 weeks after treatment; 0-9 rating scale
# Outline: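 Seedlings aged ten days are transplanted in pairs into undrained pots of silt loam, which are then flooded to a depth of 1.5 to 3 cm. After herbicide application the pots are kept in a greenhouse with the flood maintained. Plants are rated 0-9 by visual comparison with controls.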
# [27] = tested on: ZEAMX (Corn, Field); assay: Postemergence herbicidal evaluation; assay type: in vivo, Zea mays, L.
# Outline: as §2
# [28] = tested on: GALAP (Galium aparine); assay: Postemergence herbicidal evaluation; assay type: in vivo
# Outline: as §2
# [29] = tested on: GLXMAW (Soybean, Williams); assay: Preemergence herbicidal evaluation; assay type: in vivo, Glycine max, (L.) Merr. cv Williams; conditions: preemergence, rated 4-5 weeks after treatment
# [30] = tested on: TRZAWR (Wheat, Winter, cv Riband); assay: Preemergence herbicidal evaluation; assay type: in vivo, Triticum aestivum; conditions: preemergence, rated 4-5 weeks after treatment
# Outline: as §1
structure (smiles),measurement,setting,value
"Cc1nnc(-c2nsc3ccc(-n4c(=O)cc(C(F)(F)F)n(C)c4=O)cc23)o1 [Compound 16, 1-methyl-3-[3-(5-methyl-1,3,4-oxadiazol-2-yl)-1,2-benzisothiazol-5-yl]-6-(trifluoromethyl)uracil]",ECHCG preemergence herbicidal rating,[1]; Rate 0.2500 kg/ha,9.0
same,SETVI preemergence herbicidal rating,[2]; Rate 0.2500 kg/ha,9.0
same,"herbicidal rating, CYPSE",[3],6.0
same,"Postemergence herbicidal rating, TRZAWR",[4]; rate 0.1250 kg/ha,3.0
same,"herbicidal rating, SAGPY",[5],4.5
same,ZEAMX preemergence herbicidal rating,[6]; Rate 0.2500 kg/ha,7.5
same,ORYSAT preemergence herbicidal rating,[7]; Rate 0.2500 kg/ha,7.0
same,"Postemergence herbicidal rating, ORYSAT",[8]; rate 0.1250 kg/ha,3.0
same,"Postemergence herbicidal rating, CHEAL",[9]; rate 0.1250 kg/ha,3.5
same,"Postemergence herbicidal rating, CASOB",[10]; rate 0.1250 kg/ha,3.5
same,"Postemergence herbicidal rating, AMBEL",[11]; rate 0.1250 kg/ha,4.5
same,"Postemergence herbicidal rating, IPOHE",[12]; rate 0.1250 kg/ha,4.5
same,IPOHE preemergence herbicidal rating,[13]; Rate 0.2500 kg/ha,9.0
same,"Postemergence herbicidal rating, SETVI",[14]; rate 0.1250 kg/ha,4.5
same,"Postemergence herbicidal rating, ECHCG",[15]; rate 0.1250 kg/ha,1.5
same,"Postemergence herbicidal rating, ABUTH",[16]; rate 0.1250 kg/ha,4.5
same,CHEAL preemergence herbicidal rating,[17]; Rate 0.2500 kg/ha,9.0
same,CASOB preemergence herbicidal rating,[18]; Rate 0.2500 kg/ha,9.0
same,AMBEL preemergence herbicidal rating,[19]; Rate 0.2500 kg/ha,9.0
same,"herbicidal rating, ECHORC",[20],8.0
same,"Postemergence herbicidal rating, GLXMAW",[21]; rate 0.1250 kg/ha,5.8
same,GALAP preemergence herbicidal rating,[22]; Rate 0.2500 kg/ha,7.0
same,"herbicidal rating, MOOVA",[23],9.0
same,"herbicidal rating, CYPIR",[24],8.5
same,ABUTH preemergence herbicidal rating,[25]; Rate 0.2500 kg/ha,9.0
same,"herbicidal rating, ORYSAT (rice tolerance)",[26],5.5
same,"Postemergence herbicidal rating, ZEAMX",[27]; rate 0.1250 kg/ha,4.3
same,"Postemergence herbicidal rating, GALAP",[28]; rate 0.1250 kg/ha,3.0
same,GLXMAW preemergence herbicidal rating,[29]; Rate 0.2500 kg/ha,7.5
same,TRZAWR preemergence herbicidal rating,[30]; Rate 0.2500 kg/ha,7.0
"Cn1c(C(F)(F)F)cc(=O)n(-c2cc3c(-c4ccccn4)nsc3cc2F)c1=O [Compound 25, 3-[6-fluoro-3-(2-pyridyl)-1,2-benzisothiazol-5-yl]-1-methyl-6-(trifluoromethyl)uracil]",ECHCG preemergence herbicidal rating,[1]; Rate 0.1250 kg/ha,9.0
same,SETVI preemergence herbicidal rating,[2]; Rate 0.1250 kg/ha,9.0
same,"herbicidal rating, CYPSE",[3],9.0
same,"Postemergence herbicidal rating, TRZAWR",[4]; rate 0.0620 kg/ha,4.5
same,"herbicidal rating, SAGPY",[5],9.0
same,ZEAMX preemergence herbicidal rating,[6]; Rate 0.1250 kg/ha,8.0
same,ORYSAT preemergence herbicidal rating,[7]; Rate 0.1250 kg/ha,9.0
same,"Postemergence herbicidal rating, ORYSAT",[8]; rate 0.0620 kg/ha,3.0
same,"Postemergence herbicidal rating, CHEAL",[9]; rate 0.0620 kg/ha,9.0
same,"Postemergence herbicidal rating, CASOB",[10]; rate 0.0620 kg/ha,9.0
same,"Postemergence herbicidal rating, AMBEL",[11]; rate 0.0620 kg/ha,9.0
same,"Postemergence herbicidal rating, IPOHE",[12]; rate 0.0620 kg/ha,9.0
same,IPOHE preemergence herbicidal rating,[13]; Rate 0.1250 kg/ha,9.0
same,"Postemergence herbicidal rating, SETVI",[14]; rate 0.0620 kg/ha,9.0
same,"Postemergence herbicidal rating, ECHCG",[15]; rate 0.0620 kg/ha,3.0
same,"Postemergence herbicidal rating, ABUTH",[16]; rate 0.0620 kg/ha,9.0
same,CHEAL preemergence herbicidal rating,[17]; Rate 0.1250 kg/ha,9.0
same,CASOB preemergence herbicidal rating,[18]; Rate 0.1250 kg/ha,9.0
same,AMBEL preemergence herbicidal rating,[19]; Rate 0.1250 kg/ha,9.0
same,"herbicidal rating, ECHORC",[20],9.0
same,"Postemergence herbicidal rating, GLXMAW",[21]; rate 0.0620 kg/ha,9.0
same,GALAP preemergence herbicidal rating,[22]; Rate 0.1250 kg/ha,5.0
same,"herbicidal rating, MOOVA",[23],9.0
same,"herbicidal rating, CYPIR",[24],9.0
same,ABUTH preemergence herbicidal rating,[25]; Rate 0.1250 kg/ha,9.0
same,"herbicidal rating, ORYSAT (rice tolerance)",[26],9.0
same,"Postemergence herbicidal rating, ZEAMX",[27]; rate 0.0620 kg/ha,7.0
same,"Postemergence herbicidal rating, GALAP",[28]; rate 0.0620 kg/ha,4.0
same,GLXMAW preemergence herbicidal rating,[29]; Rate 0.1250 kg/ha,7.0
same,TRZAWR preemergence herbicidal rating,[30]; Rate 0.1250 kg/ha,9.0
